In assay [1] the test system is UM-SCC10A head and neck cancer cells. As to the kind of experiment: MTT antiproliferative assay, UM-SCC10A. It counts as cell-based. To be noted: UMSCC-10A, Table 1A, 48 h, read-out: Concentration required to reduce the viability of cells by 50%, UM-SCC10A. On the procedure:
(§1) To evaluate antiproliferative properties of the compounds of Formula I, mitochondrial dehydrogenase activities were measured using the MTT assay. The cell lines were prepared by trypsinizing and seeding […] cells per well into microplates. All compounds were reconstituted in dimethyl sulfoxide (DMSO) at a concentration of either 100 mM or 25 mM prior to treatment. The cells were grown for 24 hrs before treatment at concentrations ranging from 0.004 to 100 microM and incubated for 48 hrs in 200 microL media. 20 microL of MTT reagent in serum free medium (5 mg/mL) was added to each well and incubated further for 2 hrs. Media was removed and the resulting formazan crystals were re-solubilized in 100 microL of DMSO and the optical density (OD) was measured using a Thermomax Molecular Device plate reader at a wavelength of 490 nm. The experiments were performed in quadruplicate and repeated at least twice for each compound per cell line. Cells treated with 0.1% DMSO were used as a negative control, while phenyl arsine oxide (PAO) was used as a positive killing control.

The subject of assay [2] is MES-SA uterine sarcoma cells. Briefly: MTT antiproliferative assay, MES-SA. The format is cell-based. The following applies: Homo sapiens, Table 3, parental drug-responsive cell line, read-out: GI50 in vitro Values, MES-SA. On the procedure:
Human T-cell leukemia cell line Jurkat (ATCC TIB-152, E6-1 clone) was cultured in RPMI-1640 (Invitrogen) supplemented with 10% FBS (Invitrogen), 100 mg/L penicillin G, 100 mg/L streptomycin, 1.0 mM sodium pyruvate, 1.5 g/L sodium bicarbonate, and 4.5 g/L glucose (all from Sigma). Human cervical cancer cell line HeLa (ATCC S3) was cultured in DMEM (Invitrogen) supplemented with 10% FBS, 100 mg/L penicillin G, and 100 mg/L streptomycin. MCF-7 (human mammary carcinoma) cells were cultured in DMEM supplemented with 1.0 mM sodium pyruvate, 1% GlutaMax™-1 (Invitrogen), 100 μg/mL penicillin, 100 μg/mL streptomycin, and 10% FBS. Human uterine sarcoma MES-SA and MES-SA/Dx5 cells were cultured in RPMI-1640 medium supplemented with 10% FBS, 100 mg/L penicillin G and 100 mg/L streptomycin. All cells were incubated at 37° C. in a humidified atmosphere with 5% CO2. […]
To evaluate antiproliferative properties of the compounds of Formula I, mitochondrial dehydrogenase activities were measured using the MTT assay. […] Media was removed and the resulting formazan crystals were re-solubilized in 100 microL of DMSO and the optical density (OD) was measured using a Thermomax Molecular Device plate reader at a wavelength of 490 nm. […]
The cells of such tumors are referred to as multidrug resistant (MDR). Thus, we assessed the compounds of Formula I for antiproliferative activity in an MDR cancer cell line. […]
(Formazan colour is commonly taken as a measure of viable cells.)

For assay [3], the system named is U373 glioblastoma cells. Briefly: MTT antiproliferative assay, U373. The format is cell-based, human. The following applies: Homo sapiens, U373 MG; Table 2; 48 h, MTT; read-out: GI50 in vitro values, U373. On the procedure:
as §1
(§2) Human cancer cell lines were obtained from the American Type Culture Collection (ATCC, Manassas, Va., USA), the European Collection of Cell Culture (ECACC, Salisbury, UK) and the Deutsche Sammlung von Mikroorganismen and Zellkulturen (DSMZ, Braunschweig, Germany). Human cervical adenocarcinoma HeLa cells were cultured in DMEM supplemented with 10% fetal bovine serum (FBS). Human mammary carcinoma MCF-7 cells were cultured in RPMI supplemented with 10% FBS. The U87 and U373 cells were cultured in DMEM culture medium (Lonza code 12-136F, Vervier, Belgium), while the SKMEL-28 and A549 cells were cultured in RPMI culture medium (Lonza; code 12-115F) supplemented with 10% heat-inactivated FBS (Lonza, FBS South America code DE14-801F). […] All cell lines were cultured in T25 flasks, maintained and grown at 37° C., 95% humidity, 5% CO2.
(§3) To evaluate antiproliferative properties of the synthesized compounds, the MTT assay was used. The cell lines were assessed by trypsinizing each cell line and seeding 4×10^3 cells per well into 96-well plates. All compounds were dissolved in DMSO at a concentration of either 100 mM or 50 mM prior to cell treatment. The cells were grown for 24 h and then treated with compounds at concentrations ranging from 0.04 to 100 μM and incubated for 48 h in 200 μL media. 20 μL of MTT reagent in serum free medium (5 mg/mL) was added to each well and incubated further for 2 h. Media was removed, and the resulting formazan crystals were re-solubilized in 200 μL of DMSO. A490 was measured using a Thermomax Molecular Device plate reader. The experiments were performed in quadruplicate and repeated at least twice for each compound per cell line. […]

Assay [4] concerns HeLa cervical adenocarcinoma cells. As to the kind of experiment: MTT antiproliferative assay, HeLa. The format is cell-based. The following applies: Homo sapiens, Table 1, 48 h treatment, MTT, ± SD, read-out: GI50 in vitro Values, HeLa. Summed up: (§4)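 Cells were seeded at 4×10^3 per well, grown 24 h, then treated at 0.04–100 μM for 48 h; HeLa in DMEM and MCF-7 in RPMI, each with 10% FBS. MTT for 2 h, formazan dissolved in DMSO, A490 read; quadruplicate, at least two repeats, 0.1% DMSO vehicle control and 1 μM phenyl arsine oxide as positive killing control.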

Assay [5] has as its system UM-SCC22A head and neck cancer cells. Briefly: MTT antiproliferative assay, UM-SCC22A. The format is cell-based. The following applies: Table 1A, 48 h, read-out: Concentration required to reduce the viability of cells by 50%, UM-SCC22A. On the procedure:
as §1

In assay [6] the test system is A549 non-small-cell lung cancer cells. As to the kind of experiment: MTT antiproliferative assay, A549. The format is cell-based. The following applies: Homo sapiens, Table 2, 48 h, read-out: GI50 in vitro values, A549. On the procedure:
as §1, §2
To evaluate antiproliferative properties of the synthesized compounds, the MTT assay was used. The cell lines were assessed by trypsinizing each cell line and seeding 4×10^3 cells per well into 96-well plates. All compounds were dissolved in DMSO at a concentration of either 100 mM or 50 mM prior to cell treatment. The cells were grown for 24 h and then treated with compounds at concentrations ranging from 0.04 to 100 μM and incubated for 48 h in 200 μL media. 20 μL of MTT reagent in serum free medium (5 mg/mL) was added to each well and incubated further for 2 h. Media was removed, and the resulting formazan crystals were re-solubilized in 200 μL of DMSO. A490 was measured using a Thermomax Molecular Device plate reader. The experiments were performed in quadruplicate and repeated at least twice for each compound per cell line. Cells treated with 0.1% DMSO were used as a control, and 1 μM phenyl arsine oxide (PAO) was used as a positive killing control.

The test system of assay [7] is MCF-7 mammary gland adenocarcinoma cells. Briefly: MTT antiproliferative assay, MCF-7. It counts as cell-based. The following applies: Homo sapiens, MCF7; Table 1; 48 h treatment, MTT, ± SD; read-out: GI50 in vitro Values, MCF-7. Summed up:
as §4

For assay [8], the system named is SKMEL-28 melanoma cells. As to the kind of experiment: MTT antiproliferative assay, SKMEL-28. It counts as cell-based, human. To be noted: Homo sapiens, SK-MEL-28; Table 2; 48 h, MTT; read-out: GI50 in vitro values, SKMEL-28. The protocol: as §1, §2, §3

As a reminder, the GI50 is the concentration at which growth is held to half of that of the control. On to `O=C(c1ccccc1)c1[nH]c2[nH]cnc(=O)c2c1-c1cc(Br)cc(Br)c1` [Rig8, 6-Benzoyl-5-(3,5-dibromophenyl)-1H-pyrrolo[2,3-d]pyrimidin-4(7H)-one], for which the IC50 in assay [1] came out at 90 nM; in assay [5], 110 nM. In addition, the GI50 in assay [2] stood at 81 ± 6 nM; in assay [3], 30 nM; in assay [4] it was 95 ± 40 nM; in assay [6], 30 nM; in assay [7], 95 ± 10 nM; in assay [8], 20 nM.

The values above are taken from US9334280B2, “Synthetic rigidin analogues as anticancer agents, salts, solvates and prodrugs thereof, and method of producing same” (New Mexico Technical Research Foundation, priority 2012, dated 2016).
